According to patent US8940897B2, “1,3,4-oxadiazole and 1,3,4-thiadiazole β-lactamase inhibitors” (priority 2012, dated 2015):
Structures can show the parent of a compound that is named as a salt.

Assays:
[1] = test system: bacterial strains that express the class D cephalosporinase OXA-15; experiment: Synergy MIC / standard BLI potentiation MIC assay, strains expressing OXA-15;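 further: more active means a lower MIC or sMIC than Avibactam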; type: cell-based, E. coli; conditions: in the presence of a β-lactam; comparator Avibactam (CCC)
How it was run: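 CLSI broth microdilution in CAMHB, ~10^5 CFU/mL, 18–20 h at 37 °C with aeration; engineered E. coli kept on 25 μg/mL tetracycline. Potentiation: β-lactam 128–0.13 μg/mL with BLI fixed at 4 μg/mL; synergy MIC: BLI serially diluted with fixed β-lactam. MIC is the lowest concentration without visible turbidity.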

[2] = test system: bacterial strains that express KPC β-lactamases; experiment: Synergy MIC / standard BLI potentiation MIC assay, strains expressing KPC β-lactamases; type: cell-based; conditions: for at least one KPC strain and/or a better spectrum of activity against KPC strains than Avibactam; in the presence of a β-lactam
Experimental: Unless otherwise indicated, the activity of the BLI compounds can be described by the MIC value obtained from a Synergy MIC assay or a BLI potentiation assay (e.g as described herein), both of which are run in the presence of a β-lactam.
The experimental protocol was performed according to Clinical and Laboratory Standards Institute (CLSI) guidelines with modifications as described below (CLSI guidelines can be derived from the CLSI document M07-A9 published in January 2012: “Methods for Dilution Antimicrobial Susceptibility Tests for Bacteria That Grow Aerobically; Approved Standard-Ninth Edition”).
To prepare for MIC testing, frozen glycerol stocks of clinical isolates (Klebsiella pneumoniae, Eschericia coli, Enterobacter spp, Citrobacter spp, or Pseudomonas aeruginosa) were used to streak for isolated colonies on rich, non-selective, tryptic soy agar containing 5% sheep's blood (TSAB). Frozen glycerol stocks of laboratory engineered, isogenic E. coli strains, which contain cloned β-lactamase expressing plasmids were used to streak for isolated colonies on rich, selective LB agar supplemented with 25 μg/mL tetracycline to maintain the plasmid. All strains were incubated at 37° C. for 18-24 hrs.
On the day of testing, primary cultures were started by scraping off 5-10 colonies from the TSAB plates containing clinical strains or the tetracycline supplemented LB plates containing engineered strains. The clinical strain material was suspended in ˜5 mL of cation adjusted Mueller Hinton Broth (CAMHB) in 14 mL culture tubes. The engineered strain material was suspended in CAMHB (supplemented with 25 μg/mL tetracycline) in 14 mL culture tubes. All strains were incubated at 37° C. with aeration (200 rpm) for ˜2 hrs until the optical density at 600 nm (OD600) was ≧0.1.
The two compound components of the assay were each diluted in CAMHB and added to the 96-well broth microdilution assay plates. 50 μL of the β-lactam was added to each well of the assay plate in 2-fold dilutions with final concentrations ranging from 128 to 0.13 μg/mL. 25 μL of the BLI compound was added to all wells in the broth microdilution plates at a final concentration of 4 μg/mL. Inoculum cultures were prepared by standardizing the primary cultures to OD600=0.1 and then adding 20 μL of the adjusted primary culture per 1 mL CAMHB for clinical strains or CAMHB (supplemented with tetracycline at 100 μg/mL) for engineered strains, so that the final inoculum density was ˜10^5 colony forming units per milliliter. Diluted inoculum cultures were used to inoculate 25 μl, per well in 96-well broth microdilution assay plates. The final volume of each well was 100 μL and contained a β-lactam at different concentrations, a BLIcompound at 4 μg/mL concentration, the bacterial culture at an OD600 of approximately 0.001 and when necessary tetracycline at 25 μg/mL.
Plates were incubated for 18-20 hours at 37° C. with aeration (200 rpm). Following incubation, growth was confirmed visually placing plates over a viewing apparatus (stand with a mirror underneath) and then OD600 was measured using a SpectraMax 340PC384 plate reader (Molecular Devices, Sunnyvale, Calif.). Growth was defined as turbidity that could be detected with the naked eye or achieving minimum OD600 of 0.1. MIC values were defined as the lowest concentration producing no visible turbidity.
The synergy MIC (sMIC) assay determines the concentration of the BLI required to potentiate the activity of a fixed concentration of a β-lactam antibiotic against β-lactamase producing bacterial strains. The experimental protocol was performed according to Clinical and Laboratory Standards Institute (CLSI) guidelines with modifications as described below (CLSI guidelines can be derived from the CLSI document M07-A9 published in January 2012: “Methods for Dilution Antimicrobial Susceptibility Tests for Bacteria That Grow Aerobically; Approved Standard-Ninth Edition”). […]

Compound | activity against bacterial strains that express OXA-15 β-lactamase compared with Avibactam [1] | activity against bacterial strains that express KPC β-lactamase compared with Avibactam [2]
CC(C)(N)Cc1nnc([C@@H]2CC[C@@H]3CN2C(=O)N3OS(=O)(=O)O)o1 [Compound 737, (2S,5R)-2-(5-(2-amino-2-methylpropyl)-1,3,4-oxadiazol-2-yl)-7-oxo-1,6-diazabicyclo[3.2.1]octan-6-yl hydrogen sulfate] | more active than Avibactam | more active than Avibactam
N=C(N)Nc1nnc([C@@H]2CC[C@@H]3CN2C(=O)N3OS(=O)(=O)O)o1 [Compound 738, (2S,5R)-2-(5-guanidino-1,3,4-oxadiazol-2-yl)-7-oxo-1,6-diazabicyclo[3.2.1]octan-6-yl hydrogen sulfate] | more active than Avibactam | more active than Avibactam
N=C(N)NC1(Cc2nnc([C@@H]3CC[C@@H]4CN3C(=O)N4OS(=O)(=O)O)o2)CC1 [Compound 739, (2S,5R)-2-(5-((1-guanidinocyclopropyl)methyl)-1,3,4-oxadiazol-2-yl)-7-oxo-1,6-diazabicyclo[3.2.1]octan-6-yl hydrogen sulfate] | more active than Avibactam | more active than Avibactam
O=C1N2C[C@@H](CC[C@H]2c2nnc([C@H]3[C@@H]4CNC[C@@H]43)o2)N1OS(=O)(=O)O [Compound 740, (2S,5R)-2-(5-(3-azabicyclo[3.1.0]hexan-6-yl)-1,3,4-oxadiazol-2-yl)-7-oxo-1,6-diazabicyclo[3.2.1]octan-6-yl hydrogen sulfate] | more active than Avibactam | more active than Avibactam
N=C(N)N1CC(Cc2nnc([C@@H]3CC[C@@H]4CN3C(=O)N4OS(=O)(=O)O)o2)C1 [Compound 741, (2S,5R)-2-(5-((1-carbamimidoylazetidin-3-yl)methyl)-1,3,4-oxadiazol-2-yl)-7-oxo-1,6-diazabicyclo[3.2.1]octan-6-yl hydrogen sulfate] | more active than Avibactam | more active than Avibactam
O=C1N2C[C@@H](CC[C@H]2c2nnc(CCC3CNC3)o2)N1OS(=O)(=O)O [Compound 742, (2S,5R)-2-(5-(2-(azetidin-3-yl)ethyl)-1,3,4-oxadiazol-2-yl)-7-oxo-1,6-diazabicyclo[3.2.1]octan-6-yl hydrogen sulfate] | more active than Avibactam | more active than Avibactam
O=C1N2C[C@@H](CC[C@H]2c2nnc(CCCC3CNC3)o2)N1OS(=O)(=O)O [Compound 743, (2S,5R)-2-(5-(3-(azetidin-3-yl)propyl)-1,3,4-oxadiazol-2-yl)-7-oxo-1,6-diazabicyclo[3.2.1]octan-6-yl hydrogen sulfate] | more active than Avibactam | more active than Avibactam
O=C1N2C[C@@H](CC[C@H]2c2nnc(COC3CNC3)o2)N1OS(=O)(=O)O [Compound 744, (2S,5R)-2-(5-((azetidin-3-yloxy)methyl)-1,3,4-oxadiazol-2-yl)-7-oxo-1,6-diazabicyclo[3.2.1]octan-6-yl hydrogen sulfate] | more active than Avibactam | more active than Avibactam
O=C1N2C[C@@H](CC[C@H]2c2nnc(CCNC3CNC3)o2)N1OS(=O)(=O)O [Compound 745, (2S,5R)-2-(5-(2-(azetidin-3-ylamino)ethyl)-1,3,4-oxadiazol-2-yl)-7-oxo-1,6-diazabicyclo[3.2.1]octan-6-yl hydrogen sulfate] | more active than Avibactam | more active than Avibactam
N=C(N)N1CC(NCc2nnc([C@@H]3CC[C@@H]4CN3C(=O)N4OS(=O)(=O)O)o2)C1 [Compound 746, (2S,5R)-2-(5-(((1-carbamimidoylazetidin-3-yl)amino)methyl)-1,3,4-oxadiazol-2-yl)-7-oxo-1,6-diazabicyclo[3.2.1]octan-6-yl hydrogen sulfate] | more active than Avibactam | more active than Avibactam
N=C(N)N[C@H]1C[C@@H](c2nnc([C@@H]3CC[C@@H]4CN3C(=O)N4OS(=O)(=O)O)o2)C1 [Compound 749, (2S,5R)-2-(5-((1s,3R)-3-guanidinocyclobutyl)-1,3,4-oxadiazol-2-yl)-7-oxo-1,6-diazabicyclo[3.2.1]octan-6-yl hydrogen sulfate] | more active than Avibactam | more active than Avibactam
O=C1N2C[C@@H](CC[C@H]2c2nnc(C3CC4(CNC4)C3)o2)N1OS(=O)(=O)O [Compound 750, (2S,5R)-2-(5-(2-azaspiro[3.3]heptan-6-yl)-1,3,4-oxadiazol-2-yl)-7-oxo-1,6-diazabicyclo[3.2.1]octan-6-yl hydrogen sulfate] | more active than Avibactam | more active than Avibactam
N[C@H]1C[C@H](Cc2nnc([C@@H]3CC[C@@H]4CN3C(=O)N4OS(=O)(=O)O)o2)C1 [Compound 751, (2S,5R)-2-(5-(((1r,3S)-3-aminocyclobutyl)methyl)-1,3,4-oxadiazol-2-yl)-7-oxo-1,6-diazabicyclo[3.2.1]octan-6-yl hydrogen sulfate] | more active than Avibactam | more active than Avibactam
N=C(N)NC1CC(Cc2nnc([C@@H]3CC[C@@H]4CN3C(=O)N4OS(=O)(=O)O)o2)C1 (stereo partly drawn) [Compound 752, (2S,5R)-2-(5-((3-guanidinocyclobutyl)methyl)-1,3,4-oxadiazol-2-yl)-7-oxo-1,6-diazabicyclo[3.2.1]octan-6-yl hydrogen sulfate] | more active than Avibactam | more active than Avibactam
N[C@H]1C[C@H](CCc2nnc([C@@H]3CC[C@@H]4CN3C(=O)N4OS(=O)(=O)O)o2)C1 [Compound 753, (2S,5R)-2-(5-(2-((1r,3R)-3-aminocyclobutyl)ethyl)-1,3,4-oxadiazol-2-yl)-7-oxo-1,6-diazabicyclo[3.2.1]octan-6-yl hydrogen sulfate] | more active than Avibactam | more active than Avibactam
